This is an account of results in patent US8153637B2, “Phenyl-alkyl piperazines having TNF-modulating activity, preparation method, and therapeutic use thereof” (Sanofi, priority 2008, dated 2012).

The test system of the first data set is TNF-α. The data set is described as follows: Synthesis of TNF-α induced in Sprague-Dawley rats by LPS from Escherichia coli. Conditions: male Sprague-Dawley rats, oral administration; LPS i.v. 0.1 mg/Kg two hours later; serum TNF-α 1.5 hours after LPS. The format is in vivo. As for the experimental part:
The test products are administered orally to groups of ten male Sprague-Dawley rats weighing about 200 grams. Two hours later, LPS is administered intravenously (0.1 mg/Kg). The blood of each animal is collected 1.5 hours after the LPS administration. The samples are centrifuged, and the serum is recovered and frozen at −80° C. The TNF-α is measured using commercial kits (RPN 2744 Amersham, UK).
For the compound `CCCCCc1cc(CCN2CCN(c3cccc(C(F)F)c3)CC2)ccc1C.Cl` [compound 8, 1-(3-difluoromethylphenyl)-4-[2-(4-methyl-3-pentylphenyl)-ethyl]piperazine hydrochloride], the “IC50, inhibiting the synthesis of TNF-α” value worked out at 1 mg/kg.
The same measure, in the same setting: in the case of `CCCCCc1cc(CCN2CCN(c3cccc(F)c3)CC2)ccc1C.Cl` [compound 4, 1-(3-fluorophenyl)-4-[2-(4-methyl-3-pentylphenyl)ethyl]-piperazine hydrochloride] it was 1 mg/kg.
On the same count and under the same terms, in the case of `CCCCCc1cc(CCN2CCN(c3cccc(C(F)(F)F)c3)CC2)ccc1C.CCCCCc1cc(CCN2CCN(c3cccc(C(F)(F)F)c3)CC2)ccc1C.O=C(O)c1cc2ccccc2c(Cc2c(O)c(C(=O)O)cc3ccccc23)c1O` [compound 1, 1-(3-trifluoromethylphenyl)-4-[2-(4-methyl-3-pentylphenyl)ethyl]piperazine hemipamoate] it was 0.3 mg/kg.

The subject of another data set is TNF-α. The data set is described as follows: Synthesis of TNF-α induced in Balb/c mice by LPS from Escherichia coli. The format is in vivo. Conditions: female Balb/c mice, oral administration; LPS i.v. 10 μg/mouse one hour later; plasma TNF-α 1.5 hours after LPS. As for the experimental part:
The test products are administered orally to groups of five 7- to 8-week-old female Balb/c mice (Charles River, France). One hour later, LPS is administered intravenously (10 μg/mouse). The blood of each animal is collected 1.5 hours after the LPS administration. The samples are centrifuged, and the plasma is recovered and frozen at −80° C. The TNF-α is measured using commercial kits (R & D, Abingdon, UK).
Turning to `CCCCCc1cc(CCN2CCN(c3cccc(C(F)(F)F)c3)CC2)ccc1C.O=C(O)CCC(=O)O` [compound 38, 1-(3-trifluoromethylphenyl)-4-[2-(4-methyl-3-pentyl-phenyl)ethyl]piperazine succinate], the “IC50, inhibiting the synthesis of TNF-α” value was 0.1 mg/kg.

Test system in another data set: not given
Experiment: not given
Conditions: not given
On to `CCCCCc1cc(CCN2CCN(c3ccc(OCC)cc3)CC2)ccc1C.Cl.Cl`, for which the melting point (as a rule, the temperature of the solid-liquid transition) lay within 228 to 230 °C.
The same measure, in the same setting: in the case of `CCCCCCc1cc(CCN2CCN(c3cccc(C(F)(F)F)c3)CC2)ccc1C.Cl` it was 187 °C.
The same measure, in the same setting: with `CCCCCc1cc(CCN2CCN(c3ccc(Cl)cn3)CC2)ccc1C.Cl` the figure was 199 to 201 °C; with `CCCc1cc(CCN2CCN(c3cccc(C(F)(F)F)c3)CC2)ccc1C.Cl`, 198 to 200 °C.
Consider `CCCCCc1cc(CCN2CCN(c3ccccn3)CC2)ccc1C.Cl.Cl`, for which the melting point lay within 183 to 185 °C.
Compound `CCCCCc1cc(CCN2CCN(c3ccc(Br)cn3)CC2)ccc1C.Cl.Cl` had a melting point of 190 to 192 °C.
The compound `CCCCCc1cc(CCN2CCN(c3cccc(C)c3)CC2)ccc1C.Cl.Cl` gave a melting point of 226 to 228 °C.
The same measure, in the same setting: with `CCCCCc1cc(CCN2CCN(c3cccc(F)c3)CC2)ccc1OC.Cl` the figure was 174 to 177 °C; with `CCCCCc1cc(CCN2CCN(c3cccc(C(F)(F)F)n3)CC2)ccc1C.Cl`, 161 to 163 °C.
Still for that read-out and setting: with `CCCCCc1cc(CCN2CCN(c3cccc(Br)n3)CC2)ccc1C.Cl` the figure was 185 to 187 °C; with `CCCCCc1cc(CCN2CCN(c3cccc(C(F)F)c3)CC2)ccc1C.Cl` [compound 8, 1-(3-difluoromethylphenyl)-4-[2-(4-methyl-3-pentylphenyl)-ethyl]piperazine hydrochloride], 182 to 185 °C; with `CCCCCc1cc(CCN2CCN(c3ccccc3C)CC2)ccc1C.Cl`, 220 to 222 °C.
Consider `CCCCCc1cc(CCN2CCN(c3ccc(Cl)cc3)CC2)ccc1C.Cl`, for which the melting point turned out to be 203 °C.
The same measure, in the same setting: with `CCCCCc1cc(CCN2CCN(c3cccc(C(F)(F)F)c3)CC2)ccc1OC.Cl` the figure was 146 to 149 °C.
Regarding `CCCCCCCc1cc(CCN2CCN(c3cccc(C(F)(F)F)c3)CC2)ccc1C.Cl`, the melting point fell in the range of 190 to 192 °C.
Same read-out and setting: with `CCCc1cc(CCN2CCN(c3cccc(C(F)(F)F)c3)CC2)ccc1OC.Cl` the figure was 184 to 185 °C; with `CCCCCc1cc(CCN2CCN(c3cccc(C(F)F)c3)CC2)ccc1OC.Cl`, 125 to 128 °C; with `CCCCCc1cc(CCN2CCN(c3ccc(C(C)(C)C)cc3)CC2)ccc1C.Cl`, 193 to 195 °C.
The same measure, in the same setting: in the case of `CCCCCc1cc(CCN2CCN(c3ccc(C(F)(F)F)cn3)CC2)ccc1C.Cl.Cl` it was over 212 °C; in that of `CCCCCc1cc(CCN2CCN(c3ccccc3)CC2)ccc1C.Cl`, 200 to 202 °C; in that of `CCCCCc1cc(CCN2CCN(c3cccc(OC(F)(F)F)c3)CC2)ccc1C.Cl`, 197 to 200 °C.
In the case of `CCCCCc1cc(CCN2CCN(c3ccc(F)cc3)CC2)ccc1C.Cl.Cl`, the melting point was over 201 °C.
On the same count and under the same terms, in the case of `CCCCCc1cc(CCN2CCN(c3cccc(F)c3)CC2)ccc1C.Cl` [compound 4, 1-(3-fluorophenyl)-4-[2-(4-methyl-3-pentylphenyl)ethyl]-piperazine hydrochloride] it was 215 to 217 °C; in that of `CCCCCc1cc(CCN2CCN(c3ccccc3Cl)CC2)ccc1C.Cl`, 200 to 202 °C.
On the same count and under the same terms, with `CCCCCc1cc(CCN2CCN(c3cccc(OC)c3)CC2)ccc1C.Cl` the figure was 199 to 201 °C; with `CCCCCCCc1cc(CCN2CCN(c3cccc(C(F)(F)F)c3)CC2)ccc1OC.Cl`, 214 °C.

The subject of the next data set is tactile allodynia after spare nerve injury. In words: Model of neuropathic pain: anti-allodynic effect in the spare nerve injury (SNI), von Frey test. To be noted: male C57B6 mice, 7 days after surgery, 1 mg/kg i.v., from 1 h to 6 h after administration. The data set is classed as in vivo. The method, then: The compounds of the invention are also tested in a model of neuropathic pain: measurement of the anti-allodynic effect in the spare nerve injury (SNI).
In this in vivo model of mice suffering from chronic neuropathic pain, the effect on tactile allodynia, a painful sensation induced after a mechanical stimulus not normally painful, is triggered in the hind leg by surgical lesion of the great sciatic nerve. It is then determined by measuring the paw withdrawal threshold (PWT), i.e. the applied force (expressed in grams) at which the mouse withdraws its hind leg.
Tactile allodynia is determined on both hind legs, i.e. homolaterally and controlaterally to the lesion determined following surgery, with the automatic von Frey test, in which the plantar skin of the hind legs is exposed to a pressure stimulus of increasing intensity reaching 5 grams, using a discharge needle prod. […]
Trial groups using the compounds according to the invention and a control group of animals were used, each being composed of four male C57B6 mice. In each group, the baseline of the PWT values (BL) was determined before surgery. […]
7 days after surgery, just before the administration of the compound, i.e. at 0 h, and in all the groups, the PWT values were determined for the homolateral hind leg (injured) and the controlateral hind leg (non-injured). […]
Turning to `CCCCCc1cc(CCN2CCN(c3cccc(C(F)(F)F)c3)CC2)ccc1C.CCCCCc1cc(CCN2CCN(c3cccc(C(F)(F)F)c3)CC2)ccc1C.O=C(O)c1cc2ccccc2c(Cc2c(O)c(C(=O)O)cc3ccccc23)c1O` [compound 1, 1-(3-trifluoromethylphenyl)-4-[2-(4-methyl-3-pentylphenyl)ethyl]piperazine hemipamoate], the “reduction of pain (anti-allodynic effect, paw withdrawal threshold PWT)” value is “statistically significant reduction of pain”.

The subject of a further data set is Zymosan-induced knee joint inflammation / hyperalgesia. The data set is described as follows: Model of joint inflammation: Zymosan-induced knee joint inflammation, secondary hyperalgesia (plantar test). The data set is classed as in vivo. To be noted: male hamster, 1 ng/joint injected into the joint one hour before first Zymosan injection; 3 Zymosan injections; measured from 4 hours and during following 3 weeks. The method, then: The compounds of the invention are tested in a model of joint inflammation.
The compound (1 ng/joint as a suspension in 10 μL of a solution of 2% PVP (polyvinylpyrrolidone)/1% lutrol F68/0.9% NaCl) according to the invention is injected one hour before the first injection of Zymosan® (see below) into the joint of a hamster.
Induction of a knee joint inflammation: Under light anaesthesia using isofluran, a suspension of Zymosan® at a dose of 100 μg in 10 μL of saline solution is injected into the knee joint of a male hamster. Zymosan® is a yeast extract which produces a strong dose-dependent inflammation when subcutaneously injected. Under the experimental conditions described herein (injection into the knee joint), it induces a hyperalgesia lasting for a week. In order to extend this period, 3 consecutive injections of Zymosan® were applied. The lag time to paw withdrawal, following exposure of the plantar skin to a defined heat stimulus, is measured using apparatus (Plantar Test Ugo Basile Biological Research Apparatus, Comerio, Italy) comprising a mini-camera to ensure the correct positioning of the infrared ray below the hind leg of interest.
Measurement of Secondary Hyperalgesia:
The timer, which measures the length of time the infrared light is reflected by the hind leg, is started by the investigator and stops automatically as soon as the animal shakes or pulls away its leg. […]
On to `CCCCCc1cc(CCN2CCN(c3cccc(C(F)(F)F)c3)CC2)ccc1C.CCCCCc1cc(CCN2CCN(c3cccc(C(F)(F)F)c3)CC2)ccc1C.O=C(O)c1cc2ccccc2c(Cc2c(O)c(C(=O)O)cc3ccccc23)c1O` [compound 1, 1-(3-trifluoromethylphenyl)-4-[2-(4-methyl-3-pentylphenyl)ethyl]piperazine hemipamoate], for which the “reduction of pain (lag time to leg withdrawal, secondary hyperalgesia)” value is given as “effective reduction of pain over a 3-week period”.
